Measurements from patent US20120128580A1, “PRESELECTION OF SUBJECTS FOR THERAPEUTIC TREATMENT WITH ELESCLOMOL BASED ON HYPOXIC STATUS” (SYNTA PHARMACEUTICALS CORP., priority 2010, published 2012).

Columns and labels:
[1] = Half-life of elesclomol in humans; format: in vivo; conditions: administered alone or with other chemotherapeutic agents
Text: Elesclomol has been tested or has been approved for testing in clinical trials for treatment of metastatic melanoma, prostate cancer, solid tumors, recurrent or persistent ovarian epithelial cancer, fallopian tube cancer, and primary peritoneal cancer. The half-life of elesclomol in humans has been determined to be about an hour when administered alone or with other chemotherapeutic agents (e.g., with paxitaxel or carboplatinin).

[2] = tested on: relapsed or refractory acute myeloid leukemia (AML); assay: Trial of elesclomol sodium in relapsed or refractory AML with low LDH; format: in vivo, human; conditions: baseline serum LDH ≤0.8 ULN, elesclomol sodium once-weekly, starting dose 200 mg/m^2
Procedure: Subjects are identified as having one of relapsed or refractory acute myeloid leukemia (AML). A subject is selected as being candidate for treatment with elesclomol based on appropriate inclusion or exclusion criteria. Routine assessments are made prior to treatment to characterize the disease state of the subject including, but not limited to, imaging studies, hematological studies, and physical examination. Additionally, coded serum sample from the subject is tested to determine the LDH level.
This trial is expected to be sufficiently powered with the enrollment of 36 patients with relapsed or refractory AML and total baseline serum LDH level less-than or equal to 0.8 upper limit of normal (ULN). Patients are treated with elesclomol sodium on a once-weekly schedule at a starting dose of 200 mg/m^2, with dose escalation planned based on safety and tolerability. The primary endpoints are to characterize the safety and tolerability of elesclomol sodium and to determine the pharmacokinetics of elesclomol and its metabolites in this patient population. Secondary endpoints include assessing the activity of elesclomol as a monotherapy in the treatment of AML.

cancer = assay: Treatment outcomes by level of hypoxia in historical samples; format: in vivo, human
Procedure: An analysis using samples collected from subjects during treatment is performed to determine the efficacy of elesclomol for the treatment of cancer based on the level of hypoxia of the tumor based on markers assessed prior to and/or during the treatment of the subjects. […] The samples are analyzed for the level of hypoxia based on the amount or activity of a marker present. […] Various portions of the tumor tissue can also be analyzed when sufficient material is available, e.g., adjacent to the necrotic core, in the center of the tumor, adjacent to or including tumor vasculature, adjacent to normal tissue, etc. One or more markers of hypoxia are measured in each of the subjects, e.g., at least one isoform or subunit of lactate dehydrogenase (LDH) or hypoxia inducible factor (HIF); at least one pro-angiogenic form of vascular endothelial growth factor (VEGF), phosphorylated VEGF receptor (pKDR) 1, 2, or 3, neurolipin 1 (NRP-1), pyruvate dehydrokinase (PDH-K), and ornithine decarboxylase (ODC). […]

[3] = tested on: non-small cell lung carcinoma (NSCLC); assay: Phase II study, elesclomol with paclitaxel and carboplatin versus paclitaxel and carboplatin alone; format: in vivo, human; conditions: previously untreated NSCLC Stage IIIB or IV, i.v. every three weeks for six cycles
Procedure: For example, a Phase II study was performed to test elesclomol in combination with paclitaxel and carboplatin, as compared to paclitaxel and carboplatin alone, in 86 subjects with previously untreated non-small cell lung carcinoma (NSCLC) and non-resectable, locally advanced, or metastatic disease (Stage IIIB or IV) were randomized 1:1 into treatment groups for treatment with carboplatnin plus elesclomol (CP+E) or carboplatnin alone (CP). Subjects were dosed intravenously with 200 mg/m^2 of paclitaxel and AUC=6 of carboplatnin either with or without 266 mg/m^2 of elesclomol every three weeks for six cycles, likely resulting in complete clearance of elesclomol between doses.

Structure (SMILES): CN(NC(=O)CC(=O)NN(C)C(=S)c1ccccc1)C(=S)c1ccccc1 [Elesclomol, N-malonyl-bis(N′-methyl-N′-thiobenzoylhydrazide)]
- half-life [1]: about an hour
- response of subjects with low levels of hypoxia versus historical control populations [2]: respond better
- response of subjects with a low level of hypoxia compared to a high level of hypoxia (cancer): better response
- Median Progression Free Survival ([3]; High LDH): 2.8 months
- Median Progression Free Survival ([3]; Low LDH): 4.6 months
